Test: Phase I study NCT02841540: treatment-related adverse events and dose-limiting toxicities
Assay type: in vivo, human
Excerpt: Patients were enrolled using a conventional 3+3 dose escalation phase I design, with escalations based on a modified Fibonacci sequence scheme (Storer Biometrics. 1989;45(3):925-937). Dose escalations continued until a dose level at which ≥2 patients of the 3-6 enrolled experienced a dose-limiting toxicity (DLT). Maximally tolerated dose (MTD) was defined as the highest dose at which no more than 1 out of 6 patients experienced a DLT. DLTs were defined as any of the following: any Grade 3 or greater study drug-related non-hematologic toxicity except for Grade 3 nausea, vomiting, fatigue, or diarrhea that resolved to Grade 1 or less within 1 week; failure to administer at least 70% of the protocol-specific dose; or prolonged myelosuppression with the persistence of Grade 4 cytopenia in the absence of persistent leukemia or blast increase 21 or more days after suspending dosing. DLTs were assessed during the first 28 days using National Cancer Institute (NCI) Common Toxicity Criteria for Adverse Events (CTCAE) version 4.03.
The primary endpoints measured included occurrence of DLTs, the type and frequency of treatment-emergent adverse events (TEAEs), and serious adverse events (SAEs). Key secondary endpoints included drug pharmacokinetics (PK) and preliminary antitumor activity, such as the overall response rate (ORR), effect of drug therapy on transfusion requirements, and overall survival (OS). Biomarker analyses and drug pharmacodynamics (PD) were included as exploratory endpoints. […] In addition, a second schedule (Schedule II) of 21 days on therapy and a rest of 7 days without therapy was explored. […] However, when limited clinical activity was observed on Schedule I, Schedule II was introduced to test whether more prolonged spliceosome modulation would lead to higher clinical activity. Each treatment cycle was 28 days in length. Patients could continue treatment until disease progression or development of unacceptable toxicity.
Eligibility criteria included normal vitamin A levels and visual acuity that corrected to 20/40 unless a cataract was present. Ophthalmologic evaluation, including fundoscopic imaging and visual evoked potentials, was performed during study screening and periodically throughout the duration of the trial.

## C/C(=C\C=C\[C@@H](C)c1ccccn1)[C@H]1OC(=O)C[C@H](O)CC[C@@](C)(O)[C@@H](OC(=O)N2CCN(C)CC2)/C=C/[C@@H]1C [Compound 1, (2S,3S,4E,6S,7R,10R)-7,10-dihydroxy-3,7-dimethyl-12-oxo-2-[(2E,4E,6R)-6-(pyridine-2-yl)hepta-2,4-dien-2-yl]oxacyclododec-4-en-6-yl-4-methylpiperazine-1-carboxylate]
Schedule II, 7 mg QD, N = 5
  Any TEAE (treatment-related, all grades): 1 (20) n (%)
  Diarrhea (treatment-related TEAE, all grades): 1 (20) n (%)
  Dysgeusia (treatment-related TEAE, all grades): 0 n (%)
  ECG QTcF prolonged (treatment-related TEAE, all grades): 0 n (%)
  Fatigue (treatment-related TEAE, all grades): 0 n (%)
  Hypophosphatemia (treatment-related TEAE, all grades): 0 n (%)
  Nausea (treatment-related TEAE, all grades): 0 n (%)
  Vomiting (treatment-related TEAE, all grades): 0 n (%)
Schedule II, 7 mg-20 mg
  dose dependency of treatment related AEs: dose dependency trend
Schedule II, 12 mg QD, N = 5
  Any TEAE (treatment-related, all grades): 4 (80) n (%)
  Diarrhea (treatment-related TEAE, all grades): 1 (20) n (%)
  Dysgeusia (treatment-related TEAE, all grades): 1 (20) n (%)
  ECG QTcF prolonged (treatment-related TEAE, all grades): 0 n (%)
  Fatigue (treatment-related TEAE, all grades): 1 (20) n (%)
  Hypophosphatemia (treatment-related TEAE, all grades): 2 (40) n (%)
  Nausea (treatment-related TEAE, all grades): 1 (20) n (%)
  Vomiting (treatment-related TEAE, all grades): 0 n (%)
Schedule II, 14 mg
  patients with DLT grade 3 sinus bradycardia: 1 of 5
Schedule II, 14 mg QD, N = 5
  Any TEAE (treatment-related, all grades): 4 (80) n (%)
  Diarrhea (treatment-related TEAE, all grades): 2 (40) n (%)
  Dysgeusia (treatment-related TEAE, all grades): 0 n (%)
  ECG QTcF prolonged (treatment-related TEAE, all grades): 1 (20) n (%)
  Fatigue (treatment-related TEAE, all grades): 0 n (%)
  Hypophosphatemia (treatment-related TEAE, all grades): 0 n (%)
  Nausea (treatment-related TEAE, all grades): 0 n (%)
  Vomiting (treatment-related TEAE, all grades): 1 (20) n (%)
Schedule II, 20 mg
  patients with DLTs (Grade 3 QTc prolongation; Grade 3 nausea): 2 of 4
  subjects reporting grade 3 AEs: 3 of the 4
Schedule II, 20 mg QD, N = 4
  Any TEAE (treatment-related, all grades): 4 (100) n (%)
  Diarrhea (treatment-related TEAE, all grades): 4 (100) n (%)
  Dysgeusia (treatment-related TEAE, all grades): 1 (25) n (%)
  ECG QTcF prolonged (treatment-related TEAE, all grades): 2 (50) n (%)
  Fatigue (treatment-related TEAE, all grades): 1 (25) n (%)
  Hypophosphatemia (treatment-related TEAE, all grades): 0 n (%)
  Nausea (treatment-related TEAE, all grades): 2 (50) n (%)
  Vomiting (treatment-related TEAE, all grades): 3 (75) n (%)
Schedule II, N = 19
  Anemia (Grade 3 or 4 treatment-related TEAE): 0 n (%)
  ECG QTcF prolonged (Grade 3 or 4 treatment-related TEAE): 1 (5) n (%)
  Fatigue (Grade 3 or 4 treatment-related TEAE): 1 (5) n (%)
  Hypophosphatemia (Grade 3 or 4 treatment-related TEAE): 1 (5) n (%)
  Nausea (Grade 3 or 4 treatment-related TEAE): 1 (5) n (%)
  Platelet count decreased (Grade 3 or 4 treatment-related TEAE): 1 (5) n (%)
  Sinus bradycardia (Grade 3 or 4 treatment-related TEAE): 1 (5) n (%)
Schedule II, Total, N = 19
  Any TEAE (treatment-related, all grades): 13 (68) n (%)
  Diarrhea (treatment-related TEAE, all grades): 8 (42) n (%)
  Dysgeusia (treatment-related TEAE, all grades): 2 (11) n (%)
  ECG QTcF prolonged (treatment-related TEAE, all grades): 3 (16) n (%)
  Fatigue (treatment-related TEAE, all grades): 2 (11) n (%)
  Hypophosphatemia (treatment-related TEAE, all grades): 2 (11) n (%)
  Nausea (treatment-related TEAE, all grades): 3 (16) n (%)
  Vomiting (treatment-related TEAE, all grades): 4 (21) n (%)
Schedule II, all patients
  QTcF (Fridericia method) prolongation, treatment-related TEAE: 16%
  diarrhea, treatment-related TEAE: 42%
  dysgeusia, treatment-related TEAE: 11%
  fatigue, treatment-related TEAE: 11%
  hypophosphatemia, treatment-related TEAE: 11%
  nausea, treatment-related TEAE: 16%
  vomiting, treatment-related TEAE: 21%
Schedule II, highest dose level tested
  subjects with treatment related AEs (all grades): 100%
Schedule II, lowest dose level tested
  subjects with treatment related AEs (all grades): 20%
Both schedules
  patients who experienced an AE characterized as a DLT: 6 patients
  subjects reporting treatment related AEs (all grades): 63 subjects
  subjects who reported grade 3 treatment related AEs: 12 subjects
In vivo
  ocular adverse event: One event of Grade 3 ocular papilledema was reported, without loss in visual acuity
